PMC7180948, “New Insights into 4-Anilinoquinazolines as Inhibitors of Cardiac Troponin I–Interacting Kinase (TNNi3K)” (Molecules, 2020)

Assays:
[1] = target: CDK4 (Homo sapiens, UniProt P11802); assay: biochemical; set-up: KINOMEscan competition binding panel (Eurofins DiscoverX), single concentration, % inhibition; conditions: read-out: 7 at 1 µM % inhibition
Method in brief: (§1)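 KINOMEscan selectivity screen; >400 human kinases; compound at 1 µM, single concentration.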

[2] = target: CAMK1G (Homo sapiens, UniProt Q96NX5); assay: biochemical; set-up: KINOMEscan competition binding panel (Eurofins DiscoverX), single concentration, % inhibition; conditions: read-out: 7 at 1 µM % inhibition
Method in brief: as §1

[3] = target: EGFR(L858R) (Homo sapiens, UniProt P00533, L858R); assay: biochemical; set-up: KINOMEscan competition binding panel (Eurofins DiscoverX), single concentration, % inhibition; conditions: read-out: 7 at 1 µM % inhibition
Method in brief: as §1

[4] = target: LIMK2 (Homo sapiens, UniProt P53671); assay: biochemical; set-up: KINOMEscan competition binding panel (Eurofins DiscoverX), single concentration, % inhibition; conditions: read-out: 7 at 1 µM % inhibition
Method in brief: as §1

[5] = target: MAST1 (Homo sapiens, UniProt Q9Y2H9); assay: biochemical; set-up: KINOMEscan competition binding panel (Eurofins DiscoverX), single concentration, % inhibition; conditions: read-out: 7 at 1 µM % inhibition
Method in brief: as §1

[6] = target: CSK (Homo sapiens, UniProt P41240); assay: biochemical; set-up: KINOMEscan competition binding panel (Eurofins DiscoverX), single concentration, % inhibition; conditions: read-out: 7 at 1 µM % inhibition
Method in brief: as §1

[7] = target: MAPKAPK2 (Homo sapiens, UniProt P49137); assay: biochemical; set-up: KINOMEscan competition binding panel (Eurofins DiscoverX), single concentration, % inhibition; conditions: read-out: 7 at 1 µM % inhibition
Method in brief: as §1

[8] = target: T1, ICK (Homo sapiens, UniProt Q9UPZ9); assay: biochemical; set-up: KINOMEscan competition binding panel (Eurofins DiscoverX), single concentration, % inhibition; conditions: read-out: 7 at 1 µM % inhibition
T1 construct: gene CILK1
Method in brief: as §1

[9] = target: FLT3(D835V) (Homo sapiens, UniProt P36888, D835V); assay: biochemical; set-up: KINOMEscan competition binding panel (Eurofins DiscoverX), single concentration, % inhibition; conditions: read-out: 7 at 1 µM % inhibition
Method in brief: as §1

[10] = target: DYRK1B (Homo sapiens, UniProt Q9Y463); assay: biochemical; set-up: KINOMEscan competition binding panel (Eurofins DiscoverX), single concentration, % inhibition; conditions: read-out: 7 at 1 µM % inhibition
Method in brief: as §1

[11] = target: EGFR(L858R,T790M) (Homo sapiens, UniProt P00533, L858R/T790M); assay: biochemical; set-up: KINOMEscan competition binding panel (Eurofins DiscoverX), single concentration, % inhibition; conditions: read-out: 7 at 1 µM % inhibition
Method in brief: as §1

[12] = target: SNRK (Homo sapiens, UniProt Q9NRH2); assay: biochemical; set-up: KINOMEscan competition binding panel (Eurofins DiscoverX), single concentration, % inhibition; conditions: read-out: 7 at 1 µM % inhibition
Method in brief: as §1

[13] = target: ANKK1 (Homo sapiens, UniProt Q8NFD2); assay: biochemical; set-up: KINOMEscan competition binding panel (Eurofins DiscoverX), single concentration, % inhibition; conditions: read-out: 7 at 1 µM % inhibition
Method in brief: as §1

[14] = target: T2, ABL1(F317L)-nonphosphorylated (Homo sapiens, UniProt P00519, F317L); assay: biochemical; set-up: KINOMEscan competition binding panel (Eurofins DiscoverX), single concentration, % inhibition; conditions: read-out: 7 at 1 µM % inhibition
T2 construct: nonphosphorylated
Method in brief: as §1

[15] = target: SLK (Homo sapiens, UniProt Q9H2G2); assay: biochemical; set-up: KINOMEscan competition binding panel (Eurofins DiscoverX), single concentration, % inhibition; conditions: read-out: 7 at 1 µM % inhibition
Method in brief: as §1

[16] = target: LATS1 (Homo sapiens, UniProt O95835); assay: biochemical; set-up: KINOMEscan competition binding panel (Eurofins DiscoverX), single concentration, % inhibition; conditions: read-out: 7 at 1 µM % inhibition
Method in brief: as §1

[17] = target: T3, GCN2(Kin.Dom.2,S808G) (Homo sapiens, UniProt Q9P2K8, S808G); assay: biochemical; set-up: KINOMEscan competition binding panel (Eurofins DiscoverX), single concentration, % inhibition; conditions: read-out: 7 at 1 µM % inhibition
T3 construct: gene EIF2AK4; Kin.Dom.2
Method in brief: as §1

[18] = target: EPHA7 (Homo sapiens, UniProt Q15375); assay: biochemical; set-up: KINOMEscan competition binding panel (Eurofins DiscoverX), single concentration, % inhibition; conditions: read-out: 7 at 1 µM % inhibition
Method in brief: as §1

[19] = target: T4, ZAK (Homo sapiens, UniProt Q9NYL2); assay: KINOMEscan at […], single concentration; assay type: binding
T4 construct: gene MAP3K20

[20] = target: T5, PDFRB (Homo sapiens, UniProt P09619); assay: KINOMEscan at […], single concentration; assay type: binding
T5 construct: gene PDGFRB

Sequence of CDK4 (P11802 whole entry): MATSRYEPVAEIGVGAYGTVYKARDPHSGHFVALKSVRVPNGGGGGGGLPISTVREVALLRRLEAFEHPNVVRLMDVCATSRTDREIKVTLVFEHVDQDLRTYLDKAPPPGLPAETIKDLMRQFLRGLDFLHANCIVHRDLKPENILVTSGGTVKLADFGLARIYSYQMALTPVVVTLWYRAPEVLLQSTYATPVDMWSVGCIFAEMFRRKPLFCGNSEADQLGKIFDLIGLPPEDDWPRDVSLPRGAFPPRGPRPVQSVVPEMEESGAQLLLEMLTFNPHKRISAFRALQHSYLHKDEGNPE
T4 sequence (Q9NYL2 2-800): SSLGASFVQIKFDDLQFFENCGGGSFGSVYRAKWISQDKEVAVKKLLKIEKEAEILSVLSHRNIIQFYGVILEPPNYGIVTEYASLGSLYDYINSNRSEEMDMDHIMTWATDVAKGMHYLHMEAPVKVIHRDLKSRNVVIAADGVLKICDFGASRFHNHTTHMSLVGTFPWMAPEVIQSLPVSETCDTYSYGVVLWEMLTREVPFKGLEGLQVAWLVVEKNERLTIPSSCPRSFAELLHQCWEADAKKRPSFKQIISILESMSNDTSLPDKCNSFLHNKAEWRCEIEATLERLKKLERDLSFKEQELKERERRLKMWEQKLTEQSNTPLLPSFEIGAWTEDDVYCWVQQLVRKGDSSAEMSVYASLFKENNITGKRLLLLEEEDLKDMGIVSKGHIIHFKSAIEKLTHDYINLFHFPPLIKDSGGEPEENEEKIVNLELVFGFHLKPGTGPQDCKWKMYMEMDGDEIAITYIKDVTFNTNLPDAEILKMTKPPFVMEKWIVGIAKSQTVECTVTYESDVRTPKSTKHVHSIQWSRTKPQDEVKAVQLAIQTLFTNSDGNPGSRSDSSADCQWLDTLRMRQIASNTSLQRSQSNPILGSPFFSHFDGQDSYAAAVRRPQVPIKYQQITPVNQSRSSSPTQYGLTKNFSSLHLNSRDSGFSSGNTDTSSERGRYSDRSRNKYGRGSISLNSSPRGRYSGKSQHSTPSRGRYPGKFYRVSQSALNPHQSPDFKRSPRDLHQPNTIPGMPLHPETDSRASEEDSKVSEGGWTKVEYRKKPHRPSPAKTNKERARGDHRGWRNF
Sequence of LIMK2 (P53671 whole entry): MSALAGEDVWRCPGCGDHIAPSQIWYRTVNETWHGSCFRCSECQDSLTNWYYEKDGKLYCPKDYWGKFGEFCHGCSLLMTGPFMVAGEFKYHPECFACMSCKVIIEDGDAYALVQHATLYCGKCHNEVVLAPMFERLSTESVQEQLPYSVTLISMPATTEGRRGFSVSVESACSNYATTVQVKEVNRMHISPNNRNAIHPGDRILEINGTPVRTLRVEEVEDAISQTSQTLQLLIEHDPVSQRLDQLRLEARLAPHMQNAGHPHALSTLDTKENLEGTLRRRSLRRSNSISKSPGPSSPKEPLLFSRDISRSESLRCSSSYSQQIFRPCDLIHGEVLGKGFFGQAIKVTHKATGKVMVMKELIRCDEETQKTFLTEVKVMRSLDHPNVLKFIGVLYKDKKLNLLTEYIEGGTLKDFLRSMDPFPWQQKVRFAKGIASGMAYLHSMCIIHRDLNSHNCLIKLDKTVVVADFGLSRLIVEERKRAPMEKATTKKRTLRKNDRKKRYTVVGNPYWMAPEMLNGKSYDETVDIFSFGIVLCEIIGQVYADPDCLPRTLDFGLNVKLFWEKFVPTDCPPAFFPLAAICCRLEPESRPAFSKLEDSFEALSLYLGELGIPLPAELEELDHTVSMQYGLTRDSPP
Sequence of SLK (Q9H2G2 whole entry): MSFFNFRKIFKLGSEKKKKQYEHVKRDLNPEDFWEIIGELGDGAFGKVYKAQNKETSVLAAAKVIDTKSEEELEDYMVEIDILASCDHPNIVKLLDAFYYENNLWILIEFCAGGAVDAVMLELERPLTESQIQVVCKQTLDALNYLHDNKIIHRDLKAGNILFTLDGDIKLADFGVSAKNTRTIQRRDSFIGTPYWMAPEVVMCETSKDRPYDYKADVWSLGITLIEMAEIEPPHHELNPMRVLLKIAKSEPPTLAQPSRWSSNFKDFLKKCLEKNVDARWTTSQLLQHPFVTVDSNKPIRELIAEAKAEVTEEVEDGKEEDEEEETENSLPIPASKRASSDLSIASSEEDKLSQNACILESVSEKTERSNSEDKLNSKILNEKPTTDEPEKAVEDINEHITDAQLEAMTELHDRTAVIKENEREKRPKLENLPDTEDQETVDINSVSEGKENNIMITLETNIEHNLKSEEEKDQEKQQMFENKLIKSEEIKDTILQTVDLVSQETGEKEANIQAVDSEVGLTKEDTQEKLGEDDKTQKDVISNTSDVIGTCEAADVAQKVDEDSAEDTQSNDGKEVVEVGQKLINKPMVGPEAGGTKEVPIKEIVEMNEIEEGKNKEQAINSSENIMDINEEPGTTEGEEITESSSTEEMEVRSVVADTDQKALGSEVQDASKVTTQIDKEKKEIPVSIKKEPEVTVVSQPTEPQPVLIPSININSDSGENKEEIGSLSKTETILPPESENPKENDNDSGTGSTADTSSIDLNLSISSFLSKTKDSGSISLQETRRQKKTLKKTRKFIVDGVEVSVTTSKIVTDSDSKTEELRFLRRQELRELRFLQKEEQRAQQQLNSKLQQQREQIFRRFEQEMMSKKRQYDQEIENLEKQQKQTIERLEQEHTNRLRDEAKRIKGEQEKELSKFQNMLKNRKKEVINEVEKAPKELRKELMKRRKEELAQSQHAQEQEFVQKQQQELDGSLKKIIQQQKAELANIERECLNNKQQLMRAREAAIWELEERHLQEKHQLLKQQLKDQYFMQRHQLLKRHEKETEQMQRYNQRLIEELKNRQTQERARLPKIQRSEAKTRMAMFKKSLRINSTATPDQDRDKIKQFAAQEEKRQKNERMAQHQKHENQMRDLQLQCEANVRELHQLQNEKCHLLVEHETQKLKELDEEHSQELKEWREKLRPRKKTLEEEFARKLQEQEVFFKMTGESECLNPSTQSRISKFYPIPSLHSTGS
Sequence of EGFR(L858R,T790M) (P00533 whole entry T790M/L858R): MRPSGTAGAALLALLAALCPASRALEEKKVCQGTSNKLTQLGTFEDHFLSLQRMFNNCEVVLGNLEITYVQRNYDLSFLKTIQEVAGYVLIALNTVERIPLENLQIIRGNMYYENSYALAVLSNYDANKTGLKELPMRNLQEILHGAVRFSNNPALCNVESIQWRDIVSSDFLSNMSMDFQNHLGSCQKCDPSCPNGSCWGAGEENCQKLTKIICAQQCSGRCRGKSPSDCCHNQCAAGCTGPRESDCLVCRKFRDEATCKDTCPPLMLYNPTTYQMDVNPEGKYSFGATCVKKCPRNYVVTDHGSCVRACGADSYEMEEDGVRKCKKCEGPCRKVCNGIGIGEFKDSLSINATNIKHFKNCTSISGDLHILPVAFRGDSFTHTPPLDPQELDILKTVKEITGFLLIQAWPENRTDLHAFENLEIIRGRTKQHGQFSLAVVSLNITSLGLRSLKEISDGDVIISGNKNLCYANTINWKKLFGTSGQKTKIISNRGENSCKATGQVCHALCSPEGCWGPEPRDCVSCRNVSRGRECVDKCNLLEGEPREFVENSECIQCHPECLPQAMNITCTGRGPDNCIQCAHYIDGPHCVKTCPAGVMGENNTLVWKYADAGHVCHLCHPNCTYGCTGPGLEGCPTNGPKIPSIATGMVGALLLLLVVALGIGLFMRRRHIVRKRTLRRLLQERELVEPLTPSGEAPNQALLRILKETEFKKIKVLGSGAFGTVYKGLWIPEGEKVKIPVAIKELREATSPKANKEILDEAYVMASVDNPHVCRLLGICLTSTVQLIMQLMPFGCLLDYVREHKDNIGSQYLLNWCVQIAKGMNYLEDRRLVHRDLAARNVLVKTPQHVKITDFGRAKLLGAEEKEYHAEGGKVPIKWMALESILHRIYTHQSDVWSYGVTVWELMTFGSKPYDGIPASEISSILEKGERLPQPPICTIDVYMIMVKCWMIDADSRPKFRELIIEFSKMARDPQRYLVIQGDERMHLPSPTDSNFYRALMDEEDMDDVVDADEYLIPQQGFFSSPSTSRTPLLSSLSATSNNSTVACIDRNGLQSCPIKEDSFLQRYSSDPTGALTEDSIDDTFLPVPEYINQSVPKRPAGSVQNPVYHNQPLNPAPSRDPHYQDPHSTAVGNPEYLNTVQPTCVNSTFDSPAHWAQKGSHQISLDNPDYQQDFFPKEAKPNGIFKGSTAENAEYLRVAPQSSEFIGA
Sequence of DYRK1B (Q9Y463 whole entry): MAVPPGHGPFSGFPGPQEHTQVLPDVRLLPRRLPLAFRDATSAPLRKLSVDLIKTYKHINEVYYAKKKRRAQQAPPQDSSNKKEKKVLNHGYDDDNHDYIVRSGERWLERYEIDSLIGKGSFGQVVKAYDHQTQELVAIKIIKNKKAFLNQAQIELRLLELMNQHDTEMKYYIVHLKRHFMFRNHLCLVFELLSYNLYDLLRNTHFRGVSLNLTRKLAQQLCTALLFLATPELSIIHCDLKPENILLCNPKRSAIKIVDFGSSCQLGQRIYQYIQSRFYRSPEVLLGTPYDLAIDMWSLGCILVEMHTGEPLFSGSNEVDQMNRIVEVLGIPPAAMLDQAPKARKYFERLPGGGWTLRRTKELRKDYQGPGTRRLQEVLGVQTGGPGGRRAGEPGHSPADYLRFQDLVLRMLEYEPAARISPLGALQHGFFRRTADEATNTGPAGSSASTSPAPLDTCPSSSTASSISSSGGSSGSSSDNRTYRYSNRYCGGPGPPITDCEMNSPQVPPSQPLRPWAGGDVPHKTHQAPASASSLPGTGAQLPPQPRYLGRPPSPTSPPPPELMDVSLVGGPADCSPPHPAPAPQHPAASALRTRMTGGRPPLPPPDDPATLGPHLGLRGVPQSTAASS

CNS(=O)(=O)c1ccc(N(C)C)c(Nc2ncnc3cc(OC)c(OC)cc23)c1 [compound 7, 3-((6,7-dimethoxyquinazolin-4-yl)amino)-4-(dimethylamino)-N-methylbenzenesulfonamide]
inhibition at 1 µM [1]: 0% | inhibition at 1 µM [2]: 0% | inhibition at 1 µM [3]: 8% | inhibition at 1 µM [4]: 0% | inhibition at 1 µM [5]: 10% | inhibition at 1 µM [6]: 0% | inhibition at 1 µM [7]: 0% | inhibition at 1 µM [8]: 7% | inhibition at 1 µM [9]: 91.8% | inhibition at 1 µM [10]: 0% | inhibition at 1 µM [11]: 7% | inhibition at 1 µM [12]: 14% | inhibition at 1 µM [13]: 19% | inhibition at 1 µM [14]: 29% | inhibition at 1 µM [15]: 0% | inhibition at 1 µM [16]: 0% | inhibition at 1 µM [17]: 7% | inhibition at 1 µM [18]: 0% | inhibition at 1 µM [19]: 93% | inhibition at 1 µM [20]: 91%
